Data on 13 compounds can be found in patent US10562891B2, “Quinazolinones as PARP14 inhibitors” (Ribon Therapeutics Inc., priority 2017, dated 2020).

Molecules are shown by their SMILES. Counter-ions that a name gives are not always drawn.

Sequence of catalytic domain of human PARP14 (Q460N5 1611-1801): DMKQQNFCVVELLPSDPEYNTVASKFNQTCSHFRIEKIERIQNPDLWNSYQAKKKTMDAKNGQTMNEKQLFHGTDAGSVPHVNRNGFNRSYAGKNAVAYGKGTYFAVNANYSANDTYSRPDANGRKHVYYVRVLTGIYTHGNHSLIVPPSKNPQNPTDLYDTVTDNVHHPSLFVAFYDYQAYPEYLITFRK

This assay deals with catalytic domain of human PARP14 (Homo sapiens (Human), UniProt Q460N5). The experiment in a line: Enzymatic assay for inhibition of PARP14 (DELFIA, auto-modification with biotin-NAD). As to conditions: auto-modification of PARP14 by biotin-NAD, 50 nM PARP14, 3 μM biotin-NAD. Type of assay: biochemical. The procedure, abridged:
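DELFIA auto-modification read-out: europium-streptavidin bound to biotin-NAD incorporated onto nickel-captured His-TEV PARP14 catalytic domain. Compound preincubated 30 min, then 50 nM enzyme with 3 μM biotin-NAD reacted 3 h, all at 25 °C, pH 8, then NAD quench. Percent inhibition normalized to rucaparib/DMSO wells, fitted (4- or 3-parameter) for IC50.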
The compound `O=c1[nH]c(CSC2CCNCC2)nc2cc(OCC3CC3)ccc12` [Example 275, 7-(Cyclopropylmethoxy)-2-((piperidin-4-ylthio)methyl)quinazolin-4(3H)-one] had an IC50 below 1000 nM.

In the case of `CS(=O)(=O)CCN1CCC(SCc2nc3cc(NC4CCCC4)cc(F)c3c(=O)[nH]2)CC1` [Example 276, 7-(Cyclopentylamino)-5-fluoro-2-(((1-(2-(methylsulfonyl)ethyl)piperidin-4-yl)thio)methyl)quinazolin-4(3H)-one], the IC50 was below 1000 nM.

Compound `O=c1[nH]c(CSC2CCNCC2)nc2cc(NCCN3CCOCC3)cc(F)c12` [Example 277, 5-Fluoro-7-((2-morpholinoethyl)amino)-2-((piperidin-4-ylthio)methyl)quinazolin-4(3H)-one dihydrochloride] registered an IC50 below 1000 nM.

As for `O=c1[nH]c(CSC2CCNCC2)nc2cc(OCC3CC3)cc(F)c12` [Example 278, 7-(Cyclopropylmethoxy)-5-fluoro-2-((piperidin-4-ylthio)methyl)quinazolin-4(3H)-one], the IC50 is below 1000 nM.

The compound `CC(C)(O)C(=O)N1CCC(SCc2nc3cc(NC4CCCC4)cc(F)c3c(=O)[nH]2)CC1` [Example 279, 7-(Cyclopentylamino)-5-fluoro-2-(((1-(2-hydroxy-2-methylpropanoyl)piperidin-4-yl)thio)methyl)quinazolin-4(3H)-one] had an IC50 below 1000 nM.

`O=c1[nH]c(CSC2CCNCC2)nc2cc(OCC3CCC3)cc(F)c12` [Example 280, 7-(Cyclobutylmethoxy)-5-fluoro-2-((piperidin-4-ylthio)methyl)quinazolin-4(3H)-one 2,2,2-trifluoroacetate] had a half-inhibitory concentration (IC50) below 1000 nM.

`O=c1[nH]c(CSC2CCN(Cc3ccccn3)CC2)nc2cc(NC3CCCC3)cc(F)c12` [Example 281, 7-(Cyclopentylamino)-5-fluoro-2-(((1-(pyridin-2-ylmethyl)piperidin-4-yl)thio)methyl)quinazolin-4(3H)-one] showed a 50% inhibitory concentration (IC50) below 1000 nM.

`O=c1[nH]c(CSC2CCNCC2)nc2cc(OCC3CCCC3)cc(F)c12` [Example 282, 7-(Cyclopentylmethoxy)-5-fluoro-2-((piperidin-4-ylthio)methyl)quinazolin-4(3H)-one 2,2,2-trifluoroacetate] had an IC50 below 1000 nM.

For the compound `CNC(=O)CN1CCC(SCc2nc3cc(NC4CCCC4)cc(F)c3c(=O)[nH]2)CC1` [Example 283, 2-(4-(((7-(Cyclopentylamino)-5-fluoro-4-oxo-3,4-dihydroquinazolin-2-yl)methyl)thio)piperidin-1-yl)-N-methylacetamide hydrochloride], the IC50 was below 1000 nM.

`Cc1cc(NCC2CC2(F)F)cc2nc(CSC3CCNCC3)[nH]c(=O)c12` (stereo not shown) [Example 284, 7-(((2,2-Difluorocyclopropyl)methyl)amino)-5-methyl-2-((piperidin-4-ylthio)methyl)quinazolin-4(3H)-one hydrochloride] showed an IC50 below 1000 nM.

Take `N#CCN1CCC(SCc2nc3cc(NC4CCCC4)cc(F)c3c(=O)[nH]2)CC1` [Example 285, 2-(4-(((7-(Cyclopentylamino)-5-fluoro-4-oxo-3,4-dihydroquinazolin-2-yl)methyl)thio)piperidin-1-yl)acetonitrile]: the IC50 was below 1000 nM.

`NC(=O)C[C@H]1CC[C@H](SCc2nc3cc(NC4CCCC4)cc(F)c3c(=O)[nH]2)CC1` [Example 286, 2-(Trans-4-(((7-(cyclopentylamino)-5-fluoro-4-oxo-3,4-dihydroquinazolin-2-yl)methyl)thio)cyclohexyl)acetamide]: the IC50 was below 1000 nM.

Take `O=c1[nH]c(CSC2CCOCC2)nc2cc(NCCN3CCOCC3)cc(F)c12` [Example 287, 5-Fluoro-7-((2-morpholinoethyl)amino)-2-(((tetrahydro-2H-pyran-4-yl)thio)methyl)quinazolin-4(3H)-one]: the half-inhibitory concentration (IC50) was below 1000 nM.
